Consider one molecule from US12440541B2, “Methods for expanding and activating γσ T cells for the treatment of cancer and related malignancies” (priority 2017, dated 2025).

In the assay the test system is γδ T cells. The assay is described as follows: γδ T cell expansion in defined medium. The note with it: defined medium with IL-2, IL-15, Amphotericin B. Format: cell-based, human.

`O=P(O)(O)C(O)(Cn1ccnc1)P(=O)(O)O` [Zoledronate, Zoledronic acid]: the “fold increase in absolute number of γδ T cells” value runs as follows: (Donor 20, Day 0 to Day 17) 3,350 fold; (Donor 20, Day 0 to Day 22) 11,060 fold; (Donor 20, Day 0 to Day 29) 31,666 fold; (Donor 21, Day 0 to Day 17) 4,633 fold; (Donor 21, Day 0 to Day 22) 12,320 fold; (Donor 21, Day 0 to Day 29) 32,833 fold.
